In ChEMBL document CHEMBL4507296 (2021):

Assays:
[1] = target: Tyrosine-protein kinase ABL2 (Homo sapiens) (UniProt P42684); conditions: Compound concentration 1000.0 nM
[2] = target: Activin receptor type-1 (Homo sapiens) (UniProt Q04771); conditions: Compound concentration 1000.0 nM
[3] = target: RAC-beta serine/threonine-protein kinase (Homo sapiens) (UniProt P31751); conditions: Compound concentration 1000.0 nM
[4] = target: ALK tyrosine kinase receptor (Homo sapiens) (UniProt Q9UM73); conditions: Compound concentration 1000.0 nM
[5] = target: Cytoplasmic tyrosine-protein kinase BMX (Homo sapiens) (UniProt P51813); conditions: Compound concentration 1000.0 nM
[6] = target: Serine/threonine-protein kinase B-raf (Homo sapiens) (UniProt P15056); conditions: Compound concentration 1000.0 nM
[7] = target: Calcium/calmodulin-dependent protein kinase type 1B (Homo sapiens) (UniProt Q6P2M8); conditions: Compound concentration 1000.0 nM
[8] = target: Calcium/calmodulin-dependent protein kinase type 1D (Homo sapiens) (UniProt Q8IU85); conditions: Compound concentration 1000.0 nM
[9] = target: Calcium/calmodulin-dependent protein kinase type II subunit beta (Homo sapiens) (UniProt Q13554); conditions: Compound concentration 1000.0 nM
[10] = target: Calcium/calmodulin-dependent protein kinase type II subunit gamma (Homo sapiens) (UniProt Q13555); conditions: Compound concentration 1000.0 nM
[11] = target: Calcium/calmodulin-dependent protein kinase type IV (Homo sapiens) (UniProt Q16566); conditions: Compound concentration 1000.0 nM
[12] = target: Cyclin-dependent kinase 4 (Homo sapiens) (UniProt P11802); conditions: Compound concentration 1000.0 nM
[13] = target: Cyclin-dependent kinase 9 (Homo sapiens) (UniProt P50750); conditions: Compound concentration 1000.0 nM
Sequence of Cyclin-dependent kinase 9 (Homo sapiens) (P50750 whole entry): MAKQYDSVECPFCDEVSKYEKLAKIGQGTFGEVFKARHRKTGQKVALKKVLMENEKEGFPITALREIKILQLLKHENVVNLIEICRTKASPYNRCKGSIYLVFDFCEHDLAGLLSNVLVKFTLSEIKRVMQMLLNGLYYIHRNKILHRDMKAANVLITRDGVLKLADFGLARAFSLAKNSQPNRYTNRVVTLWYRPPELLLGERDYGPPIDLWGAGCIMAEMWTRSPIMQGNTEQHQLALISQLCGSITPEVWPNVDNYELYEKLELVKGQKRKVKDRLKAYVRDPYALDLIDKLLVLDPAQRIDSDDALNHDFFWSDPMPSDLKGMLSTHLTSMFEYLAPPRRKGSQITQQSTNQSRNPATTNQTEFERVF

[14] = target: Dual specificity protein kinase CLK3 (Homo sapiens) (UniProt P49761); conditions: Compound concentration 1000.0 nM
Sequence of Dual specificity protein kinase CLK3 (Homo sapiens) (P49761 whole entry, looked up, canonical isoform): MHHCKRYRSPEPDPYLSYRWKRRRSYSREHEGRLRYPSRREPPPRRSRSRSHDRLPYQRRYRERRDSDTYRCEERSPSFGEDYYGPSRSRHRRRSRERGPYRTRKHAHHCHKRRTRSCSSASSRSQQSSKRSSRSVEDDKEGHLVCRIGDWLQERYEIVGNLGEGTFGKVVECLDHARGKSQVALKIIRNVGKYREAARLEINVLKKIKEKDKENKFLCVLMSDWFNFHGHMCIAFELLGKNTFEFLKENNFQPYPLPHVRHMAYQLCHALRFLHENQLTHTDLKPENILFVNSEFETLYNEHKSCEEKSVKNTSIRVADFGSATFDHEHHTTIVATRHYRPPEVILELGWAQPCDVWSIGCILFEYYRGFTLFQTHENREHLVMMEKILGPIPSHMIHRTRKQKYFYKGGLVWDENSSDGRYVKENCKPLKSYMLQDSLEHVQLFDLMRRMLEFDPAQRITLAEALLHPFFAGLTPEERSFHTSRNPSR

[15] = target: Casein kinase I isoform alpha-like (Homo sapiens) (UniProt Q8N752); conditions: Compound concentration 1000.0 nM
[16] = target: Casein kinase II subunit alpha' (Homo sapiens) (UniProt P19784); conditions: Compound concentration 1000.0 nM
Sequence of Casein kinase II subunit alpha' (Homo sapiens) (P19784 whole entry, looked up, the tested form may be a part): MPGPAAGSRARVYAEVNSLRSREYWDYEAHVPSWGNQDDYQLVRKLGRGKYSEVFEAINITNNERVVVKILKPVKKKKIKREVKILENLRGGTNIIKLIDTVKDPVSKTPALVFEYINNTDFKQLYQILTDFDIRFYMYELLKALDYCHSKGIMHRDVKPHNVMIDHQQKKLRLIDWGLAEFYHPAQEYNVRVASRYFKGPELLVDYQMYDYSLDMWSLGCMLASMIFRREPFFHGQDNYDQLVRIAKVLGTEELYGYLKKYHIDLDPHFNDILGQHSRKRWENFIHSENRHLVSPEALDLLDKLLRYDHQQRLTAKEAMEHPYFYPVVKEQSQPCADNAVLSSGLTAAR

[17] = target: Discoidin domain-containing receptor 2 (Homo sapiens) (UniProt Q16832); conditions: Compound concentration 1000.0 nM
[18] = target: Serine/threonine-protein kinase 17A (Homo sapiens) (UniProt Q9UEE5); conditions: Compound concentration 1000.0 nM
[19] = target: Dual specificity tyrosine-phosphorylation-regulated kinase 1A (Homo sapiens) (UniProt Q13627); conditions: Compound concentration 1000.0 nM
[20] = target: Dual specificity tyrosine-phosphorylation-regulated kinase 1B (Homo sapiens) (UniProt Q9Y463); conditions: Compound concentration 1000.0 nM
Sequence of Dual specificity tyrosine-phosphorylation-regulated kinase 1B (Homo sapiens) (Q9Y463 whole entry, looked up): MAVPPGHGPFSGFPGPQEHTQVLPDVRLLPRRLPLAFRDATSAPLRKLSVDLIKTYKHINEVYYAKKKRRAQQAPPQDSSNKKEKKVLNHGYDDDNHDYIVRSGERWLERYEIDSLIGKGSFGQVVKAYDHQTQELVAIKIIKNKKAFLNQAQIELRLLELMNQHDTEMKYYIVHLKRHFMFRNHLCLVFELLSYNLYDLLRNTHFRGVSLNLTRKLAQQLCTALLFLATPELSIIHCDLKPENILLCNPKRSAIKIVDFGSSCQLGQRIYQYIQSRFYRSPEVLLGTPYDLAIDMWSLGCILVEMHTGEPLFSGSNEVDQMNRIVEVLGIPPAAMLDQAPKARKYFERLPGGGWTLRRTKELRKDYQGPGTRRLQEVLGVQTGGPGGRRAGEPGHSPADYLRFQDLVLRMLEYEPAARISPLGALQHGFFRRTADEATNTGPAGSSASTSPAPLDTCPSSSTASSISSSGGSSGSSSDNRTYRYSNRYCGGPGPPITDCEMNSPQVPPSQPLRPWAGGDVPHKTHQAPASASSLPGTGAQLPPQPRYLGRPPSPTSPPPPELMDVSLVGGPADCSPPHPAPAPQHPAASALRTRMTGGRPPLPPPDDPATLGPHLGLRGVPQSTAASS

[21] = tested on: Epidermal growth factor receptor (Homo sapiens), P00533 [L858R,T790M]; conditions: Compound concentration 1000.0 nM
[22] = target: Receptor-type tyrosine-protein kinase FLT3 (Homo sapiens) (UniProt P36888); conditions: Compound concentration 1000.0 nM
Sequence of Receptor-type tyrosine-protein kinase FLT3 (Homo sapiens) (P36888 whole entry): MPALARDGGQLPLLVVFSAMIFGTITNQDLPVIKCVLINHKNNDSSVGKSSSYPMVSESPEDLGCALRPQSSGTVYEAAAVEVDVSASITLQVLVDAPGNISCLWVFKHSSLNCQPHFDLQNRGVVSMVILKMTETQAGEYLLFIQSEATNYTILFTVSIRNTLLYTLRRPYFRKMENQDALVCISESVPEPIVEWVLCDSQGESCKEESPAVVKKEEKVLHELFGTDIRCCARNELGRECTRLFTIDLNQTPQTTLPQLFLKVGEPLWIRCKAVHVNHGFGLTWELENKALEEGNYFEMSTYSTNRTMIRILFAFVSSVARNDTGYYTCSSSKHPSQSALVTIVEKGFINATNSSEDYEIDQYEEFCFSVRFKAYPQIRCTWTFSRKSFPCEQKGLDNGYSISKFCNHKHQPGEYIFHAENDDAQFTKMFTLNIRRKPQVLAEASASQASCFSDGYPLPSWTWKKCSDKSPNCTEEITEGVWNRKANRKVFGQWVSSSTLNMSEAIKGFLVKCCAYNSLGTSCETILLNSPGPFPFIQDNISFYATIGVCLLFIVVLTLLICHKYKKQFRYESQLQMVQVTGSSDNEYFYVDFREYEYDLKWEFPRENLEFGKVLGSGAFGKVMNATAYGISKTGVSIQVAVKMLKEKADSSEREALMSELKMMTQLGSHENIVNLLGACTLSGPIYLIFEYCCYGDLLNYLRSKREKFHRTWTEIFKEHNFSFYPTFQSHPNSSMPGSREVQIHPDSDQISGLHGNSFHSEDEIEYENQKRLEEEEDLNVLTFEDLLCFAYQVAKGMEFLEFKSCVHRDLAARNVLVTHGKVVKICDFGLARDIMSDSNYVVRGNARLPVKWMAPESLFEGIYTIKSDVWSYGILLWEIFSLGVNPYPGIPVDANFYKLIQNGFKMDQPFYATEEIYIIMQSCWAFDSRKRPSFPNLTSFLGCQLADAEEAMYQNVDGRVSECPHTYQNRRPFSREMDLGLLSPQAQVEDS

[23] = target: Tyrosine-protein kinase Fyn (Homo sapiens) (UniProt P06241); conditions: Compound concentration 1000.0 nM
[24] = target: Homeodomain-interacting protein kinase 2 (Homo sapiens) (UniProt Q9H2X6); conditions: Compound concentration 1000.0 nM
[25] = target: Tyrosine-protein kinase JAK1 (Homo sapiens) (UniProt P23458); conditions: Compound concentration 1000.0 nM
[26] = target: Mitogen-activated protein kinase 9 (Homo sapiens) (UniProt P45984); conditions: Compound concentration 1000.0 nM
[27] = target: Mast/stem cell growth factor receptor Kit (Homo sapiens) (UniProt P10721); conditions: Compound concentration 1000.0 nM
[28] = tested on: Mast/stem cell growth factor receptor Kit (Homo sapiens), P10721 [D816H]; conditions: Compound concentration 1000.0 nM
[29] = target: Dual specificity mitogen-activated protein kinase kinase 4 (Homo sapiens) (UniProt P45985); conditions: Compound concentration 1000.0 nM
[30] = target: Maternal embryonic leucine zipper kinase (Homo sapiens) (UniProt Q14680); conditions: Compound concentration 1000.0 nM
Sequence of Maternal embryonic leucine zipper kinase (Homo sapiens) (Q14680 whole entry, looked up): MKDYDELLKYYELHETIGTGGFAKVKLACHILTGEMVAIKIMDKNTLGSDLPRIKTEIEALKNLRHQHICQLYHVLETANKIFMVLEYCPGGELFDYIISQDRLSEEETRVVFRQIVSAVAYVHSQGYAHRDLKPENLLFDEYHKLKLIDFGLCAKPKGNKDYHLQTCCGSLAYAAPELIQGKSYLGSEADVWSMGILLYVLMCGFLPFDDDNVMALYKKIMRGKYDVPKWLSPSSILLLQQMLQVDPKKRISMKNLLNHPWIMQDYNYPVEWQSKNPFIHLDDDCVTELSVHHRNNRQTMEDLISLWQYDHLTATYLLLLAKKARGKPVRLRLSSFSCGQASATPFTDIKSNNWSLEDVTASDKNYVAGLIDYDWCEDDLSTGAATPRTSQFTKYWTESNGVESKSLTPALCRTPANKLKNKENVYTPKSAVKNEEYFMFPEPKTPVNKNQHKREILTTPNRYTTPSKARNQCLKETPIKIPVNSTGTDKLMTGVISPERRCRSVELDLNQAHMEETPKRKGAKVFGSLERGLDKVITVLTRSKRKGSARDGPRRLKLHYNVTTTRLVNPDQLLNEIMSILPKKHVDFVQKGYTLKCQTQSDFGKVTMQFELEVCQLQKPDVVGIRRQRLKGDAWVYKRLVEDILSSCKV

[31] = target: Myosin light chain kinase (Homo sapiens) (UniProt Q32MK0); conditions: Compound concentration 1000.0 nM
[32] = target: Serine/threonine-protein kinase 26 (Homo sapiens) (UniProt Q9P289); conditions: Compound concentration 1000.0 nM
Sequence of Serine/threonine-protein kinase 26 (Homo sapiens) (Q9P289 2-416 limits assumed): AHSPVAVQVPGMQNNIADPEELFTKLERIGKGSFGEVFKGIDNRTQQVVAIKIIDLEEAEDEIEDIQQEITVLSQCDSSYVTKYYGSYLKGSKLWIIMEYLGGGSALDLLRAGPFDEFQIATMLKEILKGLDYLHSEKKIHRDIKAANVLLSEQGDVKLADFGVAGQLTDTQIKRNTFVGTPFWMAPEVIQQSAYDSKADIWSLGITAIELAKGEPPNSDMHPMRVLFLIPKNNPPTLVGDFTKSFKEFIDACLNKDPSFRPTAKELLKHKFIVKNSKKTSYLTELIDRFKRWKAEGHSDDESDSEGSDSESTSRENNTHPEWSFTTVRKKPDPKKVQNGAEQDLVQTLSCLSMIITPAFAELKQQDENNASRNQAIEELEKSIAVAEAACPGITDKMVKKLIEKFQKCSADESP

[33] = target: Myosin light chain kinase 2, skeletal/cardiac muscle (Homo sapiens) (UniProt Q9H1R3); conditions: Compound concentration 1000.0 nM
[34] = target: Serine/threonine-protein kinase 38-like (Homo sapiens) (UniProt Q9Y2H1); conditions: Compound concentration 1000.0 nM
[35] = target: Serine/threonine-protein kinase Nek1 (Homo sapiens) (UniProt Q96PY6); conditions: Compound concentration 1000.0 nM
[36] = target: Mitogen-activated protein kinase kinase kinase 14 (Homo sapiens) (UniProt Q99558); conditions: Compound concentration 1000.0 nM
[37] = target: Phosphatidylinositol 4-phosphate 3-kinase C2 domain-containing subunit beta (Homo sapiens) (UniProt O00750); conditions: Compound concentration 1000.0 nM
[38] = target: Dual serine/threonine and tyrosine protein kinase (Homo sapiens) (UniProt Q6XUX3); conditions: Compound concentration 1000.0 nM
[39] = target: Ribosomal protein S6 kinase alpha-5 (Homo sapiens) (UniProt O75582); conditions: Compound concentration 1000.0 nM
[40] = target: Serine/threonine-protein kinase 35 (Homo sapiens) (UniProt Q8TDR2); conditions: Compound concentration 1000.0 nM
Sequence of Serine/threonine-protein kinase 35 (Homo sapiens) (Q8TDR2 whole entry): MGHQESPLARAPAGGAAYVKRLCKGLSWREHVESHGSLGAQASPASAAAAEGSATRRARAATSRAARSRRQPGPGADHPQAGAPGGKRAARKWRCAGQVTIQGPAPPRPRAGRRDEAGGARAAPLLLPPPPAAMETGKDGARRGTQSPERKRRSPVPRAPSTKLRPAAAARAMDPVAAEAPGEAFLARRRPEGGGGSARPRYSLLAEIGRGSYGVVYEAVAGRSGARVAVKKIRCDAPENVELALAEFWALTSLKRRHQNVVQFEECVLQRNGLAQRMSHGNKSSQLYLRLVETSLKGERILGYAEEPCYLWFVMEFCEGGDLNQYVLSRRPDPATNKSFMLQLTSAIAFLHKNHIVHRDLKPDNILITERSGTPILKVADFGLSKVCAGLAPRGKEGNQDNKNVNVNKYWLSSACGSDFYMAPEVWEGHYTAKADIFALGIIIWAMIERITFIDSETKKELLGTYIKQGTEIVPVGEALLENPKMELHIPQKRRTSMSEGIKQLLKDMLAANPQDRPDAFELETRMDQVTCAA

[41] = target: TGF-beta receptor type-2 (Homo sapiens) (UniProt P37173); conditions: Compound concentration 1000.0 nM
[42] = target: TRAF2 and NCK-interacting protein kinase (Homo sapiens) (UniProt Q9UKE5); conditions: Compound concentration 1000.0 nM
[43] = target: Testis-specific serine/threonine-protein kinase 1 (Homo sapiens) (UniProt Q9BXA7); conditions: Compound concentration 1000.0 nM
[44] = target: Wee1-like protein kinase (Homo sapiens) (UniProt P30291); conditions: Compound concentration 1000.0 nM
[45] = target: 5-hydroxytryptamine receptor 2B (Homo sapiens) (UniProt P41595); conditions: Compound concentration 10.0 uM

Sequence of RAC-beta serine/threonine-protein kinase (Homo sapiens) (P31751 whole entry): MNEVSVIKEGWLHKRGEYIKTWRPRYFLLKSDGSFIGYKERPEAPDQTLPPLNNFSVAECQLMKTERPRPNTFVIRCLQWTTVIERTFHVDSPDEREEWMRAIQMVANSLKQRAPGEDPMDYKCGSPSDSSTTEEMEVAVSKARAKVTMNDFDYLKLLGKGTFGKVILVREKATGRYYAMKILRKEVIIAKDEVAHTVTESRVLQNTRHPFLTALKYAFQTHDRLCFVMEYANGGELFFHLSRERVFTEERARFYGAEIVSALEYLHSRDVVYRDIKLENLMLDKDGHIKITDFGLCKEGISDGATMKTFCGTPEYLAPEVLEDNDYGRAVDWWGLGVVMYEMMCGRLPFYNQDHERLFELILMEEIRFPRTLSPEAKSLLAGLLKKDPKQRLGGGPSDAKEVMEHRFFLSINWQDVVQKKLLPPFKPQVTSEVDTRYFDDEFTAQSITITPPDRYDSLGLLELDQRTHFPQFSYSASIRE

C[C@H](c1ccc(F)cc1)N(Cc1cccc(C(=O)O)c1)C(=O)c1cnc2ccccc2c1 [PF-05105679]
inactive: residual activity [1] 82% | residual activity [2] 100% | residual activity [3] 87% | residual activity [4] 94% | residual activity [5] 99% | residual activity [6] 90% | residual activity [7] 100% | residual activity [8] 100% | residual activity [9] 100% | residual activity [10] 94% | residual activity [11] 100% | residual activity [12] 97% | residual activity [13] 89% | residual activity [14] 100% | residual activity [15] 100% | residual activity [16] 86% | residual activity [17] 96% | residual activity [18] 86% | residual activity [19] 100% | residual activity [20] 100% | residual activity [21] 96% | residual activity [22] 100% | residual activity [23] 63% | residual activity [24] 100% | residual activity [25] 100% | residual activity [26] 81% | residual activity [27] 100% | residual activity [28] 100% | residual activity [29] 100% | residual activity [30] 100% | residual activity [31] 100% | residual activity [32] 79% | residual activity [33] 100% | residual activity [34] 100% | residual activity [35] 100% | residual activity [36] 100% | residual activity [37] 90% | residual activity [38] 100% | residual activity [39] 98% | residual activity [40] 93% | residual activity [41] 100% | residual activity [42] 95% | residual activity [43] 91% | residual activity [44] 96% | inhibition [45] 0.7%
